Reference: ChEMBL document CHEMBL1134603 (J Med Chem, 2001)

Target: T1, Human immunodeficiency virus type 1 reverse transcriptase (Human immunodeficiency virus 1, UniProt Q72547)
Assay: Inhibition of HIV-1 reverse transcriptase at 37 degree Centigrade

SMILES | EC50
Cc1c(Sc2ccccc2)n(C)c(=O)[nH]c1=O | > 150 µM
CCOCn1c(Cc2ccccc2)c(C(C)C)c(=O)[nH]c1=O [EMIVIRINE] | 0.004 µM
Cc1c(Oc2ccccc2)n(COCCO)c(=O)[nH]c1=O | 85 µM
Cc1c(Cc2ccccc2)n(COCCO)c(=O)[nH]c1=O | 23 µM

Results, then the compound that gave them:

EC50 | SMILES
> 250 µM | Cc1c(Sc2ccccc2)[nH]c(=O)[nH]c1=O
7 µM | Cc1c(Sc2ccccc2)n(COCCO)c(=O)[nH]c1=O [HEPT]

Target: T1, Human immunodeficiency virus type 1 reverse transcriptase
Assay: Inhibition of HIV-1 reverse transcriptase at 25 degree Centigrade

IC50 | SMILES
0.11 µM | CCc1ccnc2c1N(C)C(=O)c1cccnc1N2CC
